The results in this text go back to patent US20170202845A1, “PROPHYLACTIC OR THERAPEUTIC AGENT FOR A POSTERIOR OCULAR DISEASE” (SANTEN PHARMACEUTICAL CO., LTD., priority 2014, published 2017).

The subject of this test is choroidal neovascularization. As to the kind of experiment: laser-induced rat choroidal neovascularization model. It counts as in vivo. The method, then: Usefulness of the present compounds was evaluated using a laser-induced rat choroidal neovascularization model (Invest. Ophthalmol. Vis. Sci., 40(2), 459-466 (1999)).
A rat was generally anesthetized by intramuscular administration of 1 mL/kg of a mixed solution (7:1) comprising a 5% (W/V) ketamine hydrochloride injection solution and a 2% xylazine hydrochloride injection solution. 0.5% (W/V) Tropicamide-0.5% phenylephrine hydrochloride eye drop was dropped into eyes for mydriasis, and photocoagulation was carried out with a krypton laser photocoagulation apparatus. […]
At the 7th day after the photocoagulation, the rat was generally anesthetized by intramuscular administration of 1 mL/kg of a mixed solution (7:1) comprising a 5% (W/V) ketamine hydrochloride injection solution and a 2% xylazine hydrochloride injection solution. […] The spot of photocoagulation with no leakage of fluorescence detected by fluorescein fundus angiography was judged as negative (no neovascularization), and the spot of photocoagulation with leakage of fluorescence was judged as positive. The spot of photocoagulation with slight leakage of fluorescence was judged as positive (neovascularization exists) when 2 or more spots of such a state were detected in one eye. […]

Turning to `CC(=O)N[C@@H]1C[C@H](NC(C)(C)C)CC[C@@H]1N1CC[C@H](Nc2ncnc3cc(C(C)(C)C)nn23)C1=O` [Compound 1b, N-((1R,2S,5R)-5-(tert-butylamino)-2-((S)-3-(7-tert-butylpyrazolo[1,5-a][1,3,5]triazin-4-ylamino)-2-oxopyrrolidin-1-yl)cyclohexyl)acetamide], the “Suppressing rate (%)” value (krypton laser-induced rat choroidal neovascularization, 100 mg/kg orally twice a day for 7 days, fluorescein fundus angiography at 7th day, relative to base administered group) amounted to 66.6%. For the same compound, under “laser-induced rat choroidal neovascularization model animal”, the “inhibition of choroidal neovascularization (in words)” value was “inhibit choroidal neovascularization”.
